# Where “and” joins values, the source holds several entries; their conditions need not be identical. Equal entries are not always repeated.
# How the values were obtained:
# acyl-CoA dehydrogenases = experiment: In vitro acyl-CoA dehydrogenase ferrocenium assay with C. tyrobutyricum cell-free extract; assay type: biochemical; conditions: 0.5 to 10 mM compound; rate of ferrocenium reduction at 300 nm
# Description: Lehman, et al., in An Acyl-Coenzyme A Dehydrogenase Assay Utilizing the Ferricenium Ion, Analytical Biochemistry 186, pages 280-284 (1990), disclose an in vitro assay screening technique for acyl-CoA dehydrogenases for determining enzyme deficiencies in children. An adaptation of this technique was explored as a potential screening method for ascertaining potential butyrogen inhibitors. An aqueous assay liquor is prepared such that each 1 milliliter sample contains 50 mM of TrisHCl buffer (pH 7.6); 0.05 mM of butyryl-CoA; 5 micromoles of FAD (flavin adenine dinucleotide) and 0.4 mM of ferrocenium. Whole cells of C. tyrobutyricum are lysed and are added to the assay liquor. […] The abbreviation mM stands for millimolar. To assure metabolic consistency among the samples a master batch of C. tyrobutyricum is prepared and harvested at the early log growth stage (approximate O.D. of between about 0.5 and 0.7). The master batch fermentation broth is centrifuged and rinsed with 50 mM TrisHCl buffer (pH 7.6), centrifuged and reconstituted with 50 mM TrisHCl buffer (pH 7.6) to be 10 times more concentrated than the original master batch. Aliquots of about 0.5 milliliter are placed into cryogenic vials (about 1.8 milliliter capacity) and frozen at −80° C. until needed. When needed, a vial is placed in an anoxic Coy chamber and allowed to thaw to room temperature. Once thawed, the cells are added to a 15 mL centrifuge tube and diluted with 0.5 mL of a 2 mg/mL solution of lysozyme (purchased from Aldrich) in 50 mM Tris-HCl (final concentration of lysozyme is about 1 mg/mL). The centrifuge tube is inverted 5 times, removed from the Coy chamber and allowed to incubate at 37° C. for 30 minutes. […] The centrifuge tube is vortexed in the Coy chamber for about 30 seconds, removed from the chamber and centrifuged for 15 minutes at 4000 rpm and 4° C. The tube is returned to the chamber and the cell-free extract (supernatant) is used to prepare the above described samples. The samples are analyzed at various times by absorbance spectroscopy at 300 nm using a Thermo Scientific Evolution 300 UV/Vis spectrophotometer with a 7-cuvette carousel and Starna quartz cuvettes with a septum cap to determine the amount of reduction of ferrocenium. The sample is at laboratory temperature and is maintained under anaerobic conditions. Typically, the absorbance is measured over a period of about 10 to 20 minutes which is sufficient time for the absorbance to stop changing. A linear slope of the rate of change in absorbance during the period that the absorbance is changing is determined using Microsoft Excel® 2010 linear regression to generate a straight line from the data points. The more gradual the slope, the better inhibition because the enzyme is slower at reducing the ferrocenium in the assay sample. A dose-response curve is then determined for each compound by plotting the linear slope against the respective compound concentration. A linear slope is then determined for each compound using Microsoft Excel® 2010 linear regression to generate a straight line from the data points. The steeper the dose-response slope, the better the inhibition because the increased concentration of the compound causes more of a difference in enzyme activity. The dose-response slope generally has a broad standard of deviation due to experimental imprecision and slope determinations.
# [1] = test system: Clostridium tyrobutyricum; experiment: Balch tube batch growth of strict butyrogen Clostridium tyrobutyricum on fructose, optical density; assay type: cell-based; conditions: added 21 h after inoculation
# Description: Similar experiments were conducted to make a preliminary determination as to which of the crotonate and crotonate-like compounds would act as butyrogen retardants. For this purpose the selected compounds were tested again in a series of batch experiments to determine the growth response of butyrogens to the presence of the compound at varying concentrations. The batch experiments were all conducted by anoxically filling a 20 ml Balch tube with 5 ml of a fermentation medium having the composition given in Tables 2 and 3. The media included 0.5 v/v final concentration of a fructose substrate. For each of the crotonate concentrations tested, duplicate test tubes were prepared.
# Each tube was inoculated with 0.5 ml seed culture inoculum of the strict butyrogen Clostridium tyrobutyricum. The tubes were maintained at a temperature of 37° C. Twenty one hours after the inoculation of the tube with the bacteria, the different compounds from Table 1 were added to different tubes in the amounts indicated in Table 6. This was at a time of early to mid-log phase growth for the bacteria. Each fermentation of the bacteria in the media at the different concentration of crotonate derivatives were allowed to progress and were monitored to determine the bacteria growth at selected intervals of time varying from approximately 20 hours to 54 hours. Growth at the intervals was measured by reading the optical density (OD) of the fermentation liquid. Optical density was measured as described in Example 1. The ability of a tube fermentation at a particular concentration of crotonate derivative to reach a predetermined optical density was recorded in Table 6. Table 6 indicates the presence of bacterial growth to an OD of approximately 1.8 or above with a “+”, and to an optical density in a range of 0.7 to 1.5 as a “+/−”, and indicates the failure of bacterial growth to reach an optical density of approximately 0.7 as a “−”.
# C. autoethanogenum [2] = experiment: Balch tube batch growth of homoacetogen C. autoethanogenum on fructose, optical density; assay type: cell-based; conditions: added 21 h after inoculation
# Description: These compounds were first tested to determine their effect on a known homoacetogen. Each compound was tested in a series of batch experiments to determine the growth response of a homoacetogen to the presence of the compound at varying concentrations. The batch experiments were all conducted by anoxically filling a Balch tube with 5 ml of a fermentation medium having the composition given in Tables 2 and 3. To expedite results, these batch experiments used fructose as the growth nutrient source for bacteria. Thus, the media included a 5 g/L of fructose.
# Each tube was inoculated with 0.5 ml of the same strain of C. autoethanogenum bacteria seed culture inoculum. The tubes were maintained at a temperature of 37° C. Twenty one hours after the inoculation of the tube with the bacteria, the different crotonate derivatives from Table 1 were added to different tubes in the amounts indicated in Table 4 This was at a time of early to mid-log phase growth for the bacteria. Each fermentation of the bacteria in the media at the different concentration of crotonate derivatives were allowed to progress and were monitored to determine the bacteria growth at selected intervals of time varying from approximately 20 hours to 190 hours. Growth at the intervals was measured by reading the optical density (OD) of the fermentation liquid. Optical density was measured using a Spectronic Spec 20 (Thermo Spectronic) at a wavelength of 600 nm. The OD of the Balch tube culture was measured directly in the tube using absorbance mode on the Spec 20 machine. The machine was set to zero absorbance by first measuring and adjusting the setting to zero absorbance using media only as a blank. This process was repeated at each indicated time point throughout the experiment. The ability of a tube fermentation at a particular concentration of crotonate derivative to reach a predetermined optical density was recorded in Table 4. Table 4 indicates the presence of bacterial growth to an OD of approximately 2 or above with a “+”, and to an optical density in a range of 0.5 to 1.5 as a “+/−”, and indicates the failure of bacterial growth to reach an optical density of approximately 0.5 as a “−”.
# C. autoethanogenum [3] = experiment: Toxicity to C. autoethanogenum by batch fermentation using syngas substrate, optical density; assay type: cell-based, Clostridium autoethanogenum; conditions: for O.D. Response of Various Inhibitors on C. autoethanogenum: Table 21, one value per compound; for O.D. Response to Various Inhibitors: duplicates A and B, amount not given
# Description: In this example various crotonate-like compounds on are evaluated for toxicity to C. autoethanogenum by batch fermentation using syngas substrate. The batch fermentations are conducted by anoxically filling 100 mL serum bottles with 10 mL of media having the composition given in Tables 12 and 13. Duplicate runs are conducted for each concentration. The compounds are: • C-1 Ethyl 4,4,4-trifluoro-3-(trifluoromethyl)crotonate • C-4 4,4,4-Trifluorocrotonamide • C-9 Ethyl 4,4,4-Trifluoro-3-(amino)crotonate • C-18 3 trifluoromethyl-4-methoxybenzoate.
# Each bottle is inoculated with 1.0 mL of seed culture inoculum from an active fermenter using syngas substrate and containing Clostridium autoethanogenum, which inoculum has an OD of about 4.92 (which upon a 10 times dilution provides a starting OD for the fermentation of about 0.49). The bottles are gased with syngas to about 100 kilopascals and maintained at a temperature of 37° C. The bottles are regassed with syngas every 8 to 12 hours. The syngas has the approximate composition set forth in Examples 6 to 10. Twenty four hours after inoculation of the bottles with the bacteria, the compounds are added to different bottles as a solution in 50 μL of N-methylpyrrolidone in the amounts indicated in Tables 20 and 21. The fermentation process is allowed to progress at 37° C. At selected intervals of time, bacterial growth is measured by reading the OD of the fermentation liquid using a Thermo Spectronic Genesys 20 spectrophotometer. Optical density is measured by anoxically removing an aliquot of fermentation liquid and adding it to a disposable cuvette. OD's ranging between 0.01 and 0.4 are measured using fermentation liquid directly, while OD's greater than 0.4 are measure after performing a 1/10 dilution with water.
# [4] = 0 Hours, added 24 h after inoculation
# [5] = 2.5 Hours, added 24 h after inoculation
# [6] = 6.5 Hours, added 24 h after inoculation
# [7] = 24.5 Hours, added 24 h after inoculation
smiles,measurement,setting,value
O=C(O)c1cccc(C(F)(F)F)c1 [3-(Trifluoromethyl)benzoate],Dose-Response Slope,acyl-CoA dehydrogenases,6
NC(=O)c1ccc(F)c(C(F)(F)F)c1 [3-Trifluoromethyl-4-fluorobenzamide],Dose-Response Slope,acyl-CoA dehydrogenases,5
COc1ccc(C(N)=O)cc1C(F)(F)F [3-Trifluoromethyl-4-methoxybenzamide],Dose-Response Slope,acyl-CoA dehydrogenases,12
"C/C=C/C(=O)OC(C)(C)C [C, Tert-butyl crotonate, reference compound]",Dose-Response Slope,acyl-CoA dehydrogenases,6
same,Optical density valuation of C. tyrobutyricum,[1]; 100 ppm(m),+ (bacterial growth to an OD of approximately 1.8 or above)
same,Optical density valuation of C. tyrobutyricum,[1]; 500 ppm(m),+ (bacterial growth to an OD of approximately 1.8 or above)
same,Optical density valuation of C. tyrobutyricum,[1]; 1000 ppm(m),+ (bacterial growth to an OD of approximately 1.8 or above)
same,Optical density valuation of C. autoethanogenum,C. autoethanogenum [2]; 10 ppm(m),+ (bacterial growth to an OD of approximately 2 or above)
same,Optical density valuation of C. autoethanogenum,C. autoethanogenum [2]; 100 ppm(m),+ (bacterial growth to an OD of approximately 2 or above)
same,Optical density valuation of C. autoethanogenum,C. autoethanogenum [2]; 500 ppm(m),+ (bacterial growth to an OD of approximately 2 or above)
same,Optical density valuation of C. autoethanogenum,C. autoethanogenum [2]; 1000 ppm(m),+ (bacterial growth to an OD of approximately 2 or above)
same,Optical density valuation of C. autoethanogenum,C. autoethanogenum [2]; 5000 ppm(m),+ (bacterial growth to an OD of approximately 2 or above)
same,Optical density valuation of C. autoethanogenum,C. autoethanogenum [2]; 10000 ppm(m),− (failure of bacterial growth to reach an optical density of approximately 0.5)
"NC(=O)/C=C/C(F)(F)F [Compound C-4, 4,4,4-Trifluorocrotonamide]",O.D. Response of Various Inhibitors on C. autoethanogenum,C. autoethanogenum [3]; [4],0.49
same,O.D. Response of Various Inhibitors on C. autoethanogenum,C. autoethanogenum [3]; [5],0.41
same,O.D. Response of Various Inhibitors on C. autoethanogenum,C. autoethanogenum [3]; [6],0.42
same,O.D. Response of Various Inhibitors on C. autoethanogenum,C. autoethanogenum [3]; [7],1.06
same,O.D. Response of Various Inhibitors on C. autoethanogenum,C. autoethanogenum [3]; 30.5 Hours,1.32
same,O.D. Response of Various Inhibitors on C. autoethanogenum,C. autoethanogenum [3]; 47.5 Hours,1.67
same,O.D. Response of Various Inhibitors on C. autoethanogenum,C. autoethanogenum [3]; 56 Hours,1.72
same,O.D. Response to Various Inhibitors,C. autoethanogenum [3]; [4],0.49
same,O.D. Response to Various Inhibitors,C. autoethanogenum [3]; [5],0.40 and 0.42
same,O.D. Response to Various Inhibitors,C. autoethanogenum [3]; [6],0.4 and 0.43
same,O.D. Response to Various Inhibitors,C. autoethanogenum [3]; [7],1.03 and 1.09
same,O.D. Response to Various Inhibitors,"C. autoethanogenum [3]; 30.5 Hours, added 24 h after inoculation",1.31 and 1.33
same,O.D. Response to Various Inhibitors,"C. autoethanogenum [3]; 47.5 Hours, added 24 h after inoculation",1.7 and 1.64
same,Dose-Response Slope,acyl-CoA dehydrogenases,8
"CCOC(=O)/C=C/C(F)(F)F [E, ethyl 4,4,4-trifluorocrotonate]",Dose-Response Slope,acyl-CoA dehydrogenases,6
same,Optical density valuation of C. tyrobutyricum,[1]; 100 ppm(m),+ (bacterial growth to an OD of approximately 1.8 or above)
same,Optical density valuation of C. tyrobutyricum,[1]; 500 ppm(m),+ (bacterial growth to an OD of approximately 1.8 or above)
same,Optical density valuation of C. tyrobutyricum,[1]; 1000 ppm(m),+ (bacterial growth to an OD of approximately 1.8 or above)
same,Optical density valuation of C. autoethanogenum,C. autoethanogenum [2]; 10 ppm(m),+ (bacterial growth to an OD of approximately 2 or above)
same,Optical density valuation of C. autoethanogenum,C. autoethanogenum [2]; 100 ppm(m),+ (bacterial growth to an OD of approximately 2 or above)
same,Optical density valuation of C. autoethanogenum,C. autoethanogenum [2]; 500 ppm(m),+ (bacterial growth to an OD of approximately 2 or above)
same,Optical density valuation of C. autoethanogenum,C. autoethanogenum [2]; 1000 ppm(m),+ (bacterial growth to an OD of approximately 2 or above)
same,Optical density valuation of C. autoethanogenum,C. autoethanogenum [2]; 5000 ppm(m),− (failure of bacterial growth to reach an optical density of approximately 0.5)
same,Optical density valuation of C. autoethanogenum,C. autoethanogenum [2]; 10000 ppm(m),− (failure of bacterial growth to reach an optical density of approximately 0.5)
CCOC(=O)c1ccccc1C(F)(F)F [Ethyl 2-(trifluoromethyl)benzoate],Dose-Response Slope,acyl-CoA dehydrogenases,8
